Results reported in patent US20250091994A1, “RAS/RAF BINDING INHIBITOR COMPOUND” (NATIONAL UNIVERSITY CORPORATION KOBE UNIVERSITY, priority 2021, published 2025).

How the values were obtained:
Type in all cases: cell-based
[1] = system: phosphorylated MEK (pMEK) in HL60 cells; assay: Ras-Raf signaling inhibition at culture cell level, pMEK; conditions: Homo sapiens, HL-60; HL60 (N-RasQ61L), 1 μM test compound, 3 hours
Method: (§1) The Ras-Raf signaling inhibitory activity of the compound of the present invention at a culture cell level was evaluated by the following method.
(§2) The HL60 cells described in Test Example 2 suspended in a medium containing 0.5% (v/v) FBS with each compound solution (final DMSO concentration: 1%), were seeded on a 12-well plate (2 to 4×10^5 cells/well), and the resulting mixture was then cultured at 37° C. in the presence of 5% CO2 for 3 hours.
(§3) After completion of the cell culture, proteins were extracted from the cells, using RIPA Buffer (Nacalai Tesque) containing a mixture of protease inhibitors and phosphatase inhibitors. An equivalent amount of protein was separated by standard SDS-PAGE and was then transferred onto a PVDF membrane. In order to detect the activation (phosphorylation) of MEK and ERK, downstream molecules of the Ras-Raf signaling pathway, the membrane was probed with 1000-fold diluted primary antibodies {phosphorylated MEK (pMEK: #9121), phosphorylated ERK (pERK: #9101), total MEK (tMEK: #9122), and total ERK (tERK: 9102); all from Cell signaling}, and then with a 1000-fold diluted horseradish peroxidase-labeled secondary antibody against rabbit immunoglobulin G. The immunoreactive signals were colored with EzWestLumi One (ATTO), and were then detected by Fusion FX (Vilber). Signal intensity was quantified by pixel counting. Inhibition by the test compound was determined according to the following equation: […]

[2] = system: acute lymphoblastic leukemia cells MOLT4 (N-RasG12C); assay: Cell growth inhibition, suspension cells MOLT4; conditions: Homo sapiens, MOLT-4; 3.3 μM (*), 72 hours; read-out: MOLT-4 (NRasG12C) % inhibition at 3.3 μM (*)
Method: (§4) The cell growth inhibitory activity of the compound of the present invention on human culture cells having active-type mutation in Ras was evaluated by the below-mentioned method using suspension cancer cells {acute lymphoblastic leukemia cells CCRF-CEM (K-RasG12D), promyelocytic leukemia cells HL60 (N-RasQ61L), acute lymphoblastic leukemia cells MOLT4 (N-RasG12C), and small cell lung cancer cells SHP77 (K-RasG12V)} and adherent cancer cells {large bowel cancer cells SW480 (K-RasG12V) and large bowel cancer cell SW620 (K-RasG12V)}.
(§5) (Case of suspension cells) The cells suspended in a medium containing 0.5% (v/v) fetal bovine serum (FBS) and each compound solution (final DMSO concentration: 1%) were seeded on a 96-well plate (2 to 4×10^4 cells/well), and the resulting mixture was then cultured at 37° C. in the presence of 5% CO2 for 72 hours.
(§6) Thereafter, the number of viable cells was measured using Cell Counting Reagent (Nacalai Tesque) in accordance with the manufacturer's instructions. Inhibition by the test compound was determined according to the following equation: […]

[3] = system: Vemurafenib-resistant malignant melanoma cells A375R (BRafV600E); assay: Cell growth inhibition, drug-resistant malignant melanoma A375R; conditions: Homo sapiens, in the presence of 1 μM PLX (Vemurafenib), 72 hours
Method: (§7) The human malignant melanoma cell lines A375 and HT 144, each having BRafV600E mutation, were cultured in a medium containing 10% FBS at 37° C. in the presence of 5% CO2. At the time point in which the cells became confluent, 1 μM Vemurafenib, a BRaf inhibitor, was added to the medium, and the cells were then cultured in the presence of Vemurafenib for 1 month or more (during which the medium was exchanged every 1 week), so as to acquire Vemurafenib-resistant malignant melanoma cells A375R and HT 144R. The resulting resistant cells were suspended in a medium containing 10% FBS, and then seeded on a 96-well plate to an amount of 1 to 2×10^4 cells/well. The cells were cultured at 37° C. in the presence of 5% CO2 overnight. Thereafter, the medium was exchanged with a medium containing 0.5% FBS, to which each compound solution (final DMSO concentration: 1%) and 1 μM Vemurafenib had been added, and the cells were then cultured at 37° C. in the presence of 5% CO2 for 72 hours.
as §6
(§8) Hereafter, Inhibition (%) by 3.3 μM compound is shown.

[4] = system: Vemurafenib-resistant malignant melanoma cells HT 144R (BRafV600E); assay: Cell growth inhibition, drug-resistant malignant melanoma HT144R; conditions: Homo sapiens, in the presence of 1 μM PLX (Vemurafenib), 72 hours
Method: as §7, §6, §8

[5] = system: small cell lung cancer cells SHP77 (K-RasG12V); assay: Cell growth inhibition, suspension cells SHP77; conditions: Homo sapiens, 72 hours
Method: as §4, §5, §6

[6] = system: phosphorylated ERK (pERK) in HL60 cells; assay: Ras-Raf signaling inhibition at culture cell level, pERK; conditions: Homo sapiens, HL-60; HL60 (N-RasQ61L), 1 μM test compound, 3 hours
Method: as §1, §2, §3

[7] = system: large bowel cancer cells SW480 (K-RasG12V); assay: Cell growth inhibition, adherent cells SW480; conditions: Homo sapiens, 72 hours, read-out: SW480 (KRasG12V) % inhibition at 10 μM
Method: as §4
(Case of adherent cells) The cells suspended in a medium containing 10% FBS (1 to 2×10^4 cells/well) were seeded on a 96-well plate, and were then cultured at 37° C. in the presence of […]. Thereafter, the medium was exchanged with a medium containing […], to which each compound solution (final DMSO concentration: […]) had been added, and the cells were then cultured at 37° C. in the presence of […] for 72 hours.
as §6

[8] = system: acute lymphoblastic leukemia cells CCRF-CEM (K-RasG12D); assay: Cell growth inhibition, suspension cells CCRF-CEM; conditions: Homo sapiens, 72 hours
How it was run: (§9)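 Suspension cells, 2 to 4×10^4 per well, cultured with compound in medium with 0.5% FBS (1% DMSO final) for 72 h at 37° C, 5% CO2. Viable cells counted with Cell Counting Reagent; inhibition calculated relative to controls.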

[9] = system: promyelocytic leukemia cells HL60 (N-RasQ61L); assay: Cell growth inhibition, suspension cells HL60; conditions: Homo sapiens, HL-60, 72 hours
How it was run: as §9

[10] = system: large bowel cancer cell SW620 (K-RasG12V); assay: Cell growth inhibition, adherent cells SW620; conditions: Homo sapiens, SW-620; 1 μM, 72 hours; read-out: SW620 (KRasG12V) % inhibition at 1 μM
How it was run: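 Adherent cells, 1 to 2×10^4 per well, grown overnight in 10% FBS, then exposed to compound in low-serum medium […] for 72 h at 37° C. Viable cells counted with Cell Counting Reagent; inhibition calculated relative to controls.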

## COc1cc(/C=C2/C(=O)c3ccccc3N2C(C)=O)ccc1OCC(N)=O [Example 1, (Z)-2-(4-((1-acetyl-3-oxoindolin-2-ylidene)methyl)-2-methoxyphenoxy)-acetamide]
[1]
  inhibition at 1 µM: 30%
[2]
  inhibition at 3.3 µM: 88%
[3]
  inhibition at 3.3 µM: 28%
[4]
  inhibition at 3.3 µM: 66%
[5]; 1 μM, read-out: SHP77 (KRasG12V) % inhibition at 1 μM
  inhibition at 1 µM: 73%
[6]
  inhibition at 1 µM: 61%
[7]
  inhibition at 10 µM: 50%
[8]; 1 μM, read-out: CCRF-CEM (KRasG12D) % inhibition at 1 μM
  inhibition at 1 µM: 51%
[9]; 10 μM (***), read-out: HL-60 (NRasQ61L) % inhibition at 10 μM (***)
  inhibition at 10 µM: 95%
[10]
  inhibition at 1 µM: 53%

## CC(=O)N1/C(=C/c2ncc(C(=O)N3CCOCC3)s2)C(=O)c2ccccc21 [Example 68, (E)-1-acetyl-2-((5-(morpholine-4-carbonyl)thiazol-2-yl)methylene)-indolin-3-one]
[1]
  inhibition at 1 µM: 68%
[5]; 3.3 μM (*), read-out: SHP77 (KRasG12V) % inhibition at 3.3 μM (*)
  inhibition at 3.3 µM: 67%
[6]
  inhibition at 1 µM: 93%
[7]
  inhibition at 10 µM: 52%
[8]; 3.3 μM (*), read-out: CCRF-CEM (KRasG12D) % inhibition at 3.3 μM(*)
  inhibition at 3.3 µM: 80%
[9]; 1 μM, read-out: HL-60 (NRasQ61L) % inhibition at 1 μM
  inhibition at 1 µM: 37%
